Test results taken from patent US20200131132A1, “FARNESOID X RECEPTOR AGONISTS AND USES THEREOF” (Metacrine, Inc., priority 2017, published 2020).

Biological target: T1, hFXR (Homo sapiens, UniProt Q96RI1)
T1 construct: expressed in transfected cells; host or cells: CV-1 cells
T1 sequence (Q96RI1 1-486): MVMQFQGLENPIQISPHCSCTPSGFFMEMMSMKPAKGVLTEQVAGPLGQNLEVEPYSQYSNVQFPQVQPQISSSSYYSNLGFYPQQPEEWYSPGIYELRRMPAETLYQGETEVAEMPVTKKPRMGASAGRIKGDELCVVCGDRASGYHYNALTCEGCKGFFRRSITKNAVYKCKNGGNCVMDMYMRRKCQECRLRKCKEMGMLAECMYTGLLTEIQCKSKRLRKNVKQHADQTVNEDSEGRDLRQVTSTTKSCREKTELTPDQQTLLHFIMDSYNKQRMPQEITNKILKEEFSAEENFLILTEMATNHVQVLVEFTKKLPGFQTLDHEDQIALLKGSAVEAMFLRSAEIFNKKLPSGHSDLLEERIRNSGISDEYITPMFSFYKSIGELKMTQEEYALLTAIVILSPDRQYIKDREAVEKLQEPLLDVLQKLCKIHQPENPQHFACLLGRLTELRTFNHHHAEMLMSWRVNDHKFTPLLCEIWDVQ
T1 sequence (P19793 1-462 partner): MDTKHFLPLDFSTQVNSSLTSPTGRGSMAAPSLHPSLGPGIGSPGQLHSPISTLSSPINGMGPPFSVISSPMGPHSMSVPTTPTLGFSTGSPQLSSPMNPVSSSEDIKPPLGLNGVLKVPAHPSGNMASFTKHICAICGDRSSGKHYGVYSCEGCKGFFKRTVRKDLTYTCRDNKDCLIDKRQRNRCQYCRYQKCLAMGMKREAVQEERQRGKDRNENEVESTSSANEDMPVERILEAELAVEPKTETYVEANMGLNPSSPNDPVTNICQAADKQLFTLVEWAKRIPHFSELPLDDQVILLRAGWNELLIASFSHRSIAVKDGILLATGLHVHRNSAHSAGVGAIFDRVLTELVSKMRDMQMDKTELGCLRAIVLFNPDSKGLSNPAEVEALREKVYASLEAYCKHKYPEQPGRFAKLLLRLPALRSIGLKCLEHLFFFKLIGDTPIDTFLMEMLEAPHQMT
Test: In Vitro FXR Assay (TK)
Format: cell-based
Conditions: CV-1 cells transfected with hFXR, hRXR, TK-ECRE-luc and pCMX-YFP; compounds incubated 18 hrs; luminescence
Procedure: CV-1 cells were seeded at a density of 2,000,000 cells in a T175 flask with DMEM+10% charcoal double-stripped FBS and incubated at 37° C. in 5% CO2 for 18 h (O/N).
After 18 h of incubation, the medium in the T175 flask was changed with fresh DMEM+10% charcoal super-stripped serum. In a polypropylene tube, 2500 μL OptiMEM (Life Technologies, Cat #31985-062) was combined with expression plasmids for hFXR, hRXR, TK-ECRE-luc and pCMX-YFP. The tube was then briefly vortexed and incubated at room temperature for 5 minutes. Transfection reagent (X-tremeGENE HP from Roche, Cat #06 366 236 001) was added to the OptiMEM/plasmid mixture vortexed and incubated at room temperature for 20 minutes. Following incubation, the transfection reagent/DNA mixture complex was added to cells in the T175 flask and the cells were incubated at 37° C. in 5% CO2 for 18 h (O/N).
Compounds were serially diluted in DMSO and added to transfected CV-1 cells. The cells were then incubated for 18 hrs. The next day cells were lysed and examined for luminescence.

Row | SMILES | EC50
1 | COc1ccc(-c2ccc(CN(C(=O)CC(C)(C)C)c3nccc4cc(OC5CCN(C(=O)OC(C)(C)C)CC5)ccc34)cc2)cc1C [Compound 8.05, tert-Butyl 4-((1-(N-((4′-methoxy-3′-methyl-[1,1′-biphenyl]-4-yl)methyl)-3,3-dimethylbutanamido)isoquinolin-6-yl)oxy)piperidine-1-carboxylate] | > 10000 nM
2 | COc1ccc(-c2ccc(CN(C(=O)CC(C)(C)C)c3nccc4cc(OC5CCN(C)CC5)ccc34)cc2)cc1C [Compound 8.06, N-((4′-Methoxy-3′-methyl-[1,1′-biphenyl]-4-yl)methyl)-3,3-dimethyl-N-(6-((1-methylpiperidin-4-yl)oxy)isoquinolin-1-yl)butanamide] | > 10000 nM
3 | COc1ccc(-c2ccc(CN(C(=O)CC(C)(C)C)c3nccc4cc(OC5CN(C(=O)OC(C)(C)C)C5)ccc34)cc2)cc1C [Compound 8.07, tert-Butyl 3-((1-(N-((4′-methoxy-3′-methyl-[1,1′-biphenyl]-4-yl)methyl)-3,3-dimethylbutanamido)isoquinolin-6-yl)oxy)azetidine-1-carboxylate] | > 10000 nM
4 | COCCCOc1ccc2c(N(Cc3ccc(-c4ccc(OC)c(C)c4)cc3)C(=O)CC(C)(C)C)nccc2c1 [Compound 8.08, N-((4′-Methoxy-3′-methyl-[1,1′-biphenyl]-4-yl)methyl)-N-(6-(3-methoxypropoxy)isoquinolin-1-yl)-3,3-dimethylbutanamide] | ≤ 1000 nM
5 | COc1ccc(-c2ccc(CN(C(=O)CC(C)(C)C)c3nccc4cc(OC5COC5)ccc34)cc2)cc1C [Compound 8.09, N-((4′-Methoxy-3′-methyl-[1,1′-biphenyl]-4-yl)methyl)-3,3-dimethyl-N-(6-(oxetan-3-yloxy)isoquinolin-1-yl)butanamide] | ≤ 1000 nM
6 | COc1ccc(-c2ccc(CN(C(=O)CC(C)(C)C)c3nccc4cc(OCCO)ccc34)cc2)cc1C [Compound 8.11, N-(6-(2-Hydroxyethoxy)isoquinolin-1-yl)-N-((4′-methoxy-3′-methyl-[1,1′-biphenyl]-4-yl)methyl)-3,3-dimethylbutanamide] | ≤ 1000 nM
7 | COc1ccc(-c2ccc(CN(C(=O)CC(C)(C)C)c3nccc4cc(OCCCN(C)C)ccc34)cc2)cc1C [Compound 8.12, N-(6-(3-(Dimethylamino)propoxy)iso-quinolin-1-yl)-N-((4′-methoxy-3′-methyl-[1,1′-biphenyl]-4-yl)methyl)-3,3-dimethylbutanamide] | 1000 to 10000 nM
8 | COc1ccc(-c2ccc(CN(C(=O)CC(C)(C)C)c3nccc4cc(OCCCO)cnc34)cc2)cc1C [Compound 8.13, N-(3-(3-Hydroxypropoxy)-1,7-naphthyridin-8-yl)-N-((4′-methoxy-3′-methyl-[1,1′-biphenyl]-4-yl)methyl)-3,3-dimethylbutanamide] | ≤ 1000 nM
9 | COCCOc1ccc2c(N(Cc3ccc(-c4ccc(OC)c(C)c4)cc3)C(=O)CC(C)(C)C)nccc2c1 [Compound 9, N-((4′-Methoxy-3′-methyl-[1,1′-biphenyl]-4-yl)methyl)-N-(6-(2-methoxyethoxy)isoquinolin-1-yl)-3,3-dimethylbutanamide] | ≤ 1000 nM
10 | COC(=O)COc1ccc2c(N(Cc3ccc(-c4ccc(OC)c(C)c4)cc3)C(=O)CC(C)(C)C)nccc2c1 [Compound 9.01, Methyl 2-((1-(N-((4′-methoxy-3′-methyl-[1,1′-biphenyl]-4-yl)methyl)-3,3-dimethylbutanamido)isoquinolin-6-yl)oxy)acetate] | 1000 to 10000 nM
11 | COC(=O)COCc1ccc2c(N(Cc3ccc(-c4ccc(OC)c(C)c4)cc3)C(=O)CC(C)(C)C)nccc2c1 [Compound 9.02, Methyl 2-((1-(N-((4′-methoxy-3′-methyl-[1,1′-biphenyl]-4-yl)methyl)-3,3-dimethylbutanamido)isoquinolin-6-yl)methoxy)acetate] | ≤ 1000 nM
12 | COCc1ccc2c(N(Cc3ccc(-c4ccc(OC)c(C)c4)cc3)C(=O)CC(C)(C)C)nccc2c1 [Compound 9.03, N-((4′-Methoxy-3′-methyl-[1,1′-biphenyl]-4-yl)methyl)-N-(6-(methoxymethyl)isoquinolin-1-yl)-3,3-dimethylbutanamide] | ≤ 1000 nM
13 | COCCOCc1ccc2c(N(Cc3ccc(-c4ccc(OC)c(C)c4)cc3)C(=O)CC(C)(C)C)nccc2c1 [Compound 9.04, N-((4′-Methoxy-3′-methyl-[1,1′-biphenyl]-4-yl)methyl)-N-(6-((2-methoxyethoxy)methyl)isoquinolin-1-yl)-3,3-dimethylbutanamide] | ≤ 1000 nM
14 | COc1ccc(-c2ccc(CN(C(=O)CC(C)(C)C)c3nccc4cc(OCC(C)CO)ccc34)cc2)cc1C (stereo not drawn) [Compound 10, N-(6-(3-Hydroxy-2-methylpropoxy)isoquinolin-1-yl)-N-((4′-methoxy-3′-methyl-[1,1′-biphenyl]-4-yl)methyl)-3,3-dimethylbutanamide] | ≤ 1000 nM
15 | COc1ccc(-c2ccc(CN(C(=O)CC(C)(C)C)c3nccc4cc(OCCC(C)O)ccc34)cc2)cc1C (stereo not drawn) [Compound 10.03, N-(6-(3-Hydroxybutoxy)isoquinolin-1-yl)-N-((4′-methoxy-3′-methyl-[1,1′-biphenyl]-4-yl)methyl)-3,3-dimethylbutanamide] | ≤ 1000 nM
16 | CCOc1ccc2c(N(Cc3ccc(-c4ccc(OC)c(C)c4)cc3)C(=O)CC(C)(C)C)nccc2c1 [Compound 11, N-(6-Ethoxyisoquinolin-1-yl)-N-((4′-methoxy-3′-methyl-[1,1′-biphenyl]-4-yl)methyl)-3,3-dimethylbutanamide] | ≤ 1000 nM
17 | COc1ccc(-c2ccc(CN(C(=O)CC(C)(C)C)c3nccc4cc(C)ccc34)cc2)cc1C [Compound 12, N-((4′-Methoxy-3′-methyl-[1,1′-biphenyl]-4-yl)methyl)-3,3-dimethyl-N-(6-methylisoquinolin-1-yl)butanamide] | ≤ 1000 nM
18 | COc1ccc(-c2ccc(CN(C(=O)CC(C)(C)C)c3nccc4ccc(C#N)cc34)cc2)cc1C [Compound 13, N-(7-Cyanoisoquinolin-1-yl)-N-((4′-methoxy-3′-methyl-[1,1′-biphenyl]-4-yl)methyl)-3,3-dimethylbutanamide] | 1000 to 10000 nM

Next, values leading:

Row | EC50 | SMILES
19 | ≤ 1000 nM | COc1ccc(-c2ccc(CN(C(=O)CC(C)(C)C)c3nccc4cc(OC(C)CCO)ccc34)cc2)cc1C (stereo not drawn) [Compound 10.01, N-(6-((4-Hydroxybutan-2-yl)oxy)isoquinolin-1-yl)-N-((4′-methoxy-3′-methyl-[1,1′-biphenyl]-4-yl)methyl)-3,3-dimethylbutanamide]
20 | ≤ 1000 nM | COc1ccc(-c2ccc(CN(C(=O)CC(C)(C)C)c3nccc4cc(OC5CCC(O)C5)ccc34)cc2)cc1C (stereo not drawn) [Compound 10.02, N-(6-((3-Hydroxycyclopentyl)oxy)iso-quinolin-1-yl)-N-((4′-methoxy-3′-methyl-[1,1′-biphenyl]-4-yl)methyl)-3,3-dimethylbutanamide]
21 | ≤ 1000 nM | COc1ccc(-c2ccc(CN(C(=O)CC(C)(C)C)c3nccc4cc(OC(C)C)ccc34)cc2)cc1C [Compound 11.01, N-(6-Isopropoxyisoquinolin-1-yl)-N-((4′-methoxy-3′-methyl-[1,1′-biphenyl]-4-yl)methyl)-3,3-dimethylbutanamide]
22 | ≤ 1000 nM | CCCOc1ccc2c(N(Cc3ccc(-c4ccc(OC)c(C)c4)cc3)C(=O)CC(C)(C)C)nccc2c1 [Compound 11.02, N-((4′-Methoxy-3′-methyl-[1,1′-biphenyl]-4-yl)methyl)-3,3-dimethyl-N-(6-propoxyisoquinolin-1-yl)butanamide]
23 | ≤ 1000 nM | COc1ccc2ccnc(N(Cc3ccc(-c4ccc(OC)c(C)c4)cc3)C(=O)CC(C)(C)C)c2c1 [Compound 11.03, N-((4′-Methoxy-3′-methyl-[1,1′-biphenyl]-4-yl)methyl)-N-(7-methoxyisoquinolin-1-yl)-3,3-dimethylbutanamide]
24 | 1000 to 10000 nM | COc1ccc(-c2ccc(CN(C(=O)CC(C)(C)C)c3nccc4c(OC)cccc34)cc2)cc1C [Compound 11.04, N-((4′-Methoxy-3′-methyl-[1,1′-biphenyl]-4-yl)methyl)-N-(5-methoxyisoquinolin-1-yl)-3,3-dimethylbutanamide]
